We go through 14 compounds from patent US7109197B2, “N-phenyl-4-(4-pyridyl)-2-pyrimidineamine derivatives” (Syngenta Crop Protection, Inc., priority 2000, dated 2006).

In one data set the test system is Erysiphe graminis. Description: Assay B-6: Effect against Erysiphe graminis on barley (powdery mildew); residual protective / systemic activity. It counts as in vivo. The settings on record: 0.02% active substance spray (residual) or 0.002% soil (systemic), variant not stated. The protocol: Assay B-6: Effect Against Erysiphe graminis on Barley (Powdery Mildew on Barley) a) Residual Protective Activity […] The infected plants are placed in a greenhouse at 22°. 12 days after infection, the fungal attack is evaluated. b) Systemic Activity […] […] 48 hours later, the plants are dusted with conidia of the fungus. The infected plants are placed in a greenhouse at 22° C. 12 days after infection, the disease incidence is evaluated.

The next data set has as its system Septoria nodorum. In words: Assay B-12: Effect against Septoria nodorum/wheat (Septoria leaf spot on wheat). In kind it is in vivo. The settings on record: Septoria nodorum on wheat cv. Arina, 0.02% active substance, spray; for pest or weed control at 0.02 % strength: Parastagonospora nodorum, 264 h, read-out: B12 activity. The protocol: Assay B-12: Effect Against Septoria nodorum/Wheat (Septoria Leaf Spot on Wheat) 1 week old wheat plants cv. Arina are treated with a formulated test compound (0.02% active substance) in a spray chamber. One day after application wheat plants are inoculated by spraying a spore suspension (5×10^5 conidia/ml) on the test plants. After an incubation period of 1 day at 20° C. and 95% r.h. plants are kept for 10 days at 20° C. and 60% r.h. in a greenhouse. The disease incidence is assessed 11 days after inoculation.

Data set [1] deals with Pyrenophora teres (Helminthosporium). Description: Assay B-10: Effect against Pyrenophora teres (Helminthosporium)/barley (net blotch on barley). The conditions noted are these: Pyrenophora teres on barley cv. Regina, 0.02% active substance, spray; for pest or weed control at 0.02 % strength: 96 h, read-out: B10 activity. It counts as in vivo. How it is done: Assay B-10: Effect Against Pyrenophora teres (Helminthosporium)/Barley (Net Blotch on Barley) 1 week old barley plants cv. Regina are treated with a formulated testcompound (0.02% active substance) in a spray chamber. Two days after application barley plants are inoculated by spraying a spore suspension (3×10^4 conidia/ml) on the test plants. After an incubation period of 2 days at 20° C. and 95% r.h. plants are kept for 2 days at 20° C. and 60% r.h. in a greenhouse. The disease incidence is assessed 4 days after inoculation.

The test system of data set [2] is Botrytis cinerea. Description: Assay B-8: Effect against Botrytis cinerea/tomato (Botrytis on tomatoes). The conditions noted are these: Botrytis cinerea on tomato cv. Roter Gnom; 0.02% active substance, spray. In kind it is in vivo. How it is done: Assay B-8: Effect Against Botrytis cinerea/Tomato (Botrytis on Tomatoes) 4 week old tomato plants cv. Roter Gnom are treated with the formulated testcompound 0.02% active substance) in a spray chamber. Two days after application tomato plants are inoculated by spraying a spore suspension (1×10^5 conidia/ml) on the test plants. After an incubation period of 4 days at 20° C. and 95% r. h. in a greenhouse the disease incidence is assessed.

Data set [3] deals with Botrytis cinerea. In words: Assay B-7: Botrytis cinerea/grape (Botrytis on grapes). In kind it is in vivo. The conditions noted are these: Botrytis cinerea on grape seedlings cv. Gutedel; 0.02% active substance, spray. The protocol: Assay B-7: Botrytis cinerea/Grape (Botrytis on Grapes) 5 week old grape seedlings cv. Gutedel are treated with the formulated testcompound (0.02% active substance) in a spray chamber. Two days after application grape plants are inoculated by spraying a spore suspension (1×10^6 conidia/ml) on the test plants. After an incubation period of 4 days at 21° C. and 95% r. h. in a greenhouse the disease incidence is assessed.

The subject of the next data set is Pyricularia oryzae. In kind it is in vivo. The settings on record: Pyricularia oryzae on rice cv. Sasanishiki; 0.02% active substance, spray.
The subject of another data set is Venturia inaegualis. Description: Assay B-5: Residual protective activity against Venturia inaegualis on apples (scab on apple). In kind it is in vivo. The settings on record: Venturia inaegualis on apple seedlings cv. McIntosh; 0.02% active substance, spray. The protocol: Assay B-5: Residual Protective Activity Against Venturia inaegualis on Apples (Scab on Apple) 4 week old apple seedlings cv. McIntosh are treated with the formulated testcompound (0.02% active substance) in a spray chamber. One day after application apple plants are inoculated by spraying a spore suspension (4×10^5 conidia/ml) on the test plants. After an incubation period of 4 days at 21° C. and 95% r. h. the plants are placed for 4 days at 21° C. and 60% r. h. in a greenhouse. After another 4 day incubation period at 21° C. and 95% r. h. the disease incidence is assessed.

On to `Clc1cccc(Nc2nccc(-c3ccnc(NCCN4CCOCC4)c3)n2)c1` [Compound 20], for which the B6 activity entry in the data set with Erysiphe graminis is given as “+ (the activity observed in the corresponding test system is 70% or more)”. Also, the B12 activity result in the data set with Septoria nodorum is on record as “+ (the activity observed in the corresponding test system is 70% or more)”. Besides, the B10 activity result in data set [1] is on record as “+ (the activity observed in the corresponding test system is 70% or more)”. In addition, the B8 activity result in the data set on Botrytis cinerea [2] is on record as “+ (the activity observed in the corresponding test system is 70% or more)”.
As for `FC(F)(F)CNc1cc(-c2ccnc(Nc3cccc(Cl)c3)n2)ccn1` [Compound 103], the melting point lay in the range of 222 to 223 °C. Moreover, the B6 activity entry with Erysiphe graminis is “+ (the activity observed in the corresponding test system is 70% or more)”. In the data set on Septoria nodorum, the pest or weed control at 0.02 % strength was > 70%. Further, the pest or weed control at 0.02 % strength in data set [1] is > 70%.
Take `CC(=O)OCC(C)Nc1cc(-c2ccnc(Nc3cccc(Cl)c3)n2)ccn1` (stereo not shown) [Compound 50]: the B6 activity result in the data set with Erysiphe graminis is reported as “+ (the activity observed in the corresponding test system is 70% or more)”. Besides, the B7 activity result with Botrytis cinerea [3] is recorded as “+ (the activity observed in the corresponding test system is 70% or more)”. Moreover, the B12 activity result with Septoria nodorum is on record as “+ (the activity observed in the corresponding test system is 70% or more)”. Further, in data set [1], the B10 activity result is recorded as “+ (the activity observed in the corresponding test system is 70% or more)”. Moreover, the B9 activity entry in the data set with Pyricularia oryzae is “+ (the activity observed in the corresponding test system is 70% or more)”. In addition, the B5 activity entry in the data set with Venturia inaegualis is on record as “+ (the activity observed in the corresponding test system is 70% or more)”. Moreover, the B8 activity entry in the data set on Botrytis cinerea [2] was “+ (the activity observed in the corresponding test system is 70% or more)”.
Turning to `OCCCNc1cc(-c2ccnc(Nc3cccc(Cl)c3)n2)ccn1` [Compound 46], the B12 activity result in the data set with Septoria nodorum is reported as “+ (the activity observed in the corresponding test system is 70% or more)”. In data set [1], the B10 activity result is listed as “+ (the activity observed in the corresponding test system is 70% or more)”. The B9 activity entry with Pyricularia oryzae is recorded as “+ (the activity observed in the corresponding test system is 70% or more)”.
`Clc1cccc(Nc2nccc(-c3ccnc(NCCCn4ccnc4)c3)n2)c1` [Compound 43]: the B7 activity entry in the data set on Botrytis cinerea [3] is “+ (the activity observed in the corresponding test system is 70% or more)”. In addition, in the data set on Septoria nodorum, the B12 activity entry is given as “+ (the activity observed in the corresponding test system is 70% or more)”. Also, the B10 activity result in data set [1] is “+ (the activity observed in the corresponding test system is 70% or more)”. Moreover, the B9 activity result in the data set on Pyricularia oryzae is listed as “+ (the activity observed in the corresponding test system is 70% or more)”. For the same compound, the B8 activity result in the data set on Botrytis cinerea [2] is “+ (the activity observed in the corresponding test system is 70% or more)”.
With `OCCNc1cc(-c2ccnc(Nc3cccc(Cl)c3)n2)ccn1` [Compound 37], the B6 activity result with Erysiphe graminis is reported as “+ (the activity observed in the corresponding test system is 70% or more)”. In addition, in the data set with Botrytis cinerea [3], the B7 activity entry was “+ (the activity observed in the corresponding test system is 70% or more)”. In the data set with Septoria nodorum, the B12 activity entry was “+ (the activity observed in the corresponding test system is 70% or more)”. The B10 activity result in data set [1] is given as “+ (the activity observed in the corresponding test system is 70% or more)”. Moreover, the B9 activity result in the data set with Pyricularia oryzae was “+ (the activity observed in the corresponding test system is 70% or more)”. The B5 activity entry in the data set on Venturia inaegualis is listed as “+ (the activity observed in the corresponding test system is 70% or more)”. Besides, in the data set with Botrytis cinerea [2], the B8 activity entry was “+ (the activity observed in the corresponding test system is 70% or more)”.
Take `Clc1cccc(Nc2nccc(-c3ccnc(NCCCN4CCOCC4)c3)n2)c1` [Compound 8]: the B6 activity result with Erysiphe graminis is “+ (the activity observed in the corresponding test system is 70% or more)”. Moreover, in the data set on Botrytis cinerea [2], the B8 activity result was “+ (the activity observed in the corresponding test system is 70% or more)”.
`COCC(C)Nc1cc(-c2ccnc(Nc3cccc(Cl)c3)n2)cc(F)n1` (stereo not shown) [Compound 7]: the B6 activity entry in the data set with Erysiphe graminis is “+ (the activity observed in the corresponding test system is 70% or more)”. The B10 activity entry in data set [1] is recorded as “+ (the activity observed in the corresponding test system is 70% or more)”. Also, the B5 activity entry in the data set with Venturia inaegualis was “+ (the activity observed in the corresponding test system is 70% or more)”.
For `Cl.Clc1cccc(Nc2nccc(-c3ccnc(NC4CCOC4)c3)n2)c1` (stereo not shown) [Compound 125], in the data set with Septoria nodorum, the B12 activity entry is reported as “+ (the activity observed in the corresponding test system is 70% or more)”. Also, in data set [1], the B10 activity entry is listed as “+ (the activity observed in the corresponding test system is 70% or more)”. In the data set on Pyricularia oryzae, the B9 activity result was “+ (the activity observed in the corresponding test system is 70% or more)”. Also, in the data set on Botrytis cinerea [2], the B8 activity entry is reported as “+ (the activity observed in the corresponding test system is 70% or more)”.
`CN(C)c1cc(-c2ccnc(Nc3cccc(Cl)c3)n2)ccn1` [Compound 59] showed a melting point of 178 to 179 °C. Also, in the data set on Erysiphe graminis, the B6 activity entry is “+ (the activity observed in the corresponding test system is 70% or more)”. The pest or weed control at 0.02 % strength in the data set on Septoria nodorum was > 70%. In data set [1], the pest or weed control at 0.02 % strength was > 70%.
Turning to `CC(C)=CCNc1cc(-c2ccnc(Nc3cccc(Cl)c3)n2)ccn1` [Compound 81], in the data set on Erysiphe graminis, the B6 activity result is given as “+ (the activity observed in the corresponding test system is 70% or more)”. Besides, the B12 activity entry with Septoria nodorum is reported as “+ (the activity observed in the corresponding test system is 70% or more)”. Moreover, the B10 activity entry in data set [1] was “+ (the activity observed in the corresponding test system is 70% or more)”. Moreover, the B8 activity result with Botrytis cinerea [2] is “+ (the activity observed in the corresponding test system is 70% or more)”.
As to `CC(CO)Nc1cc(-c2ccnc(Nc3cccc(Cl)c3)n2)ccn1` (stereo not shown) [Compound 39], in the data set on Botrytis cinerea [3], the B7 activity result is reported as “+ (the activity observed in the corresponding test system is 70% or more)”. For the same compound, the B12 activity result in the data set on Septoria nodorum is reported as “+ (the activity observed in the corresponding test system is 70% or more)”. Besides, the B10 activity result in data set [1] was “+ (the activity observed in the corresponding test system is 70% or more)”. For the same compound, in the data set on Pyricularia oryzae, the B9 activity entry is on record as “+ (the activity observed in the corresponding test system is 70% or more)”. Also, the B8 activity result in the data set with Botrytis cinerea [2] is given as “+ (the activity observed in the corresponding test system is 70% or more)”.
The compound `O=C(Nc1cc(-c2ccnc(Nc3cccc(Cl)c3)n2)ccn1)C(F)(F)F` [Compound 63] had a melting point of 180 to 181 °C. The B7 activity entry in the data set on Botrytis cinerea [3] was “+ (the activity observed in the corresponding test system is 70% or more)”. Also, in the data set on Septoria nodorum, the pest or weed control at 0.02 % strength was > 70%. The pest or weed control at 0.02 % strength in data set [1] is > 70%. The B9 activity result in the data set on Pyricularia oryzae is reported as “+ (the activity observed in the corresponding test system is 70% or more)”. Also, the B5 activity entry in the data set on Venturia inaegualis is on record as “+ (the activity observed in the corresponding test system is 70% or more)”. Besides, the B8 activity entry in the data set with Botrytis cinerea [2] was “+ (the activity observed in the corresponding test system is 70% or more)”.
Turning to `CCOC(=O)Nc1cc(-c2ccnc(Nc3cccc(Cl)c3)n2)ccn1` [Compound 121], the B10 activity entry in data set [1] is “+ (the activity observed in the corresponding test system is 70% or more)”. In addition, in the data set on Pyricularia oryzae, the B9 activity entry is “+ (the activity observed in the corresponding test system is 70% or more)”.
